Test results taken from US8748486B2, “Inhibitors of yeast filamentous growth and method of their manufacture” (priority 2003, dated 2014).

Experiments:
[1] = tested on: C. albicans strain CAI4 (ATCC MYA-684); test: in vitro bioassay of inhibitory activity against C. albicans yeast-to-mycelium transition; format: cell-based, Candida albicans; settings: comparison within cis/trans pair, FIG. 2
Description: An in vitro bioassay of the inhibitory activity of the fatty acids of FIG. 2 against C. albicans yeast-to-mycelium transition was carried out.
C. albicans strain CAI4 (ATCC MYA-684) was incubated at 28° C. for 24 h with shaking in a glucose salts (GS) medium (5 g of glucose, 0.26 g of Na2HPO4.12H2O, 0.66 g of KH2PO4, 0.88 g of MgSO4.7H2O, 0.33 g of NH4Cl, 16 μg of biotin per liter) supplemented with 0.1 mg/ml of uridine.
All the C. albicans cells remained, in the yeast form under these conditions. The yeast cells were washed three times with GS medium before use and then were dispersed in GS medium to give a solution with a final OD600 of 1.0.
The test compounds set out in FIG. 2 were diluted to the indicated concentrations with GS medium and were added to 100 μl of the washed C. albicans culture in 96-well microtitre plates, mixed and incubated at 37° C. for 6 hours (h).
The percentages of yeast cells and germ tubes (filamentous form) were determined microscopically by counting about 300 cells from three replicates. Inhibitory activity was defined as the mole concentration that gave a minimum of 90% inhibition (IC90) relative to control.

[2] = tested on: C. albicans strain CAI4; test: yeast-to-mycelium conversion of a C. albicans culture at 37° C. with or without DSF; format: cell-based, Candida albicans
Description: (§1) A starter culture of C. albicans strain CAI4 was prepared by growing the fungus at a low temperature (28° C.) in GS medium to maintain the yeast cell morphology. […] The synthetic DSF was indistinguishable with the natural DSF in inhibition of germ tube formation.

[3] = tested on: C. albicans strain CAI4; test: toxic effect on yeast cell growth; format: cell-based, Candida albicans; settings: for toxic effect on yeast cell growth: concentrations up to 1 mM
Description: as §1

[4] = tested on: C. albicans; settings: cited from earlier work

With `CC(C)CCCCCCC/C=C\C(=O)O` [Compound 1, cis-11-methyl-2-dodecenoic acid] the “inhibitory activity of cis- and trans-isomer pairs compared” value [1] was “identical inhibitory activity”, the yeast-to-mycelium transition ([2]; 30 μM, 37° C., within 6 hours, GS medium) was “completely abolished” and the “yeast-to-mycelium transition of a culture of Candida albicans” value ([2]; FIGS. 3a and 3b) was “inhibits”. The “inhibition of germ tube formation compared with the natural DSF” value ([2]; synthetic versus natural DSF) was “indistinguishable”, the “effect on yeast growth” value ([3]; FIGS. 3a and 3b) was “does not affect yeast growth” and the “toxic effect on yeast cell growth” value [3] was “not observed to have a toxic effect”. The “toxic effect on yeast cell growth” value ([3]; listed as DSF) was “No toxic effect”.
In the case of `CC(C)=CCCC(C)=CCCC(C)=CC(=O)O` [Compound 3, 3,7,11-trimethyl-2,6,10-dodecatrienoic acid], the “C. albicans germ tube (mycelium) formation” value [4] is listed as “inhibits”.
For `CC(C)=CCCC(C)=CCCC(C)=CCO` [Farnesol], the “mycelial development of C. albicans” value ([4]; growth morphology assay and differentiation assay, activators L-proline, N-acetylglucosamine, serum) is listed as “prevent mycelial development”.
With `CCCCCCCCC/C=C\C(=O)O` [Compound 7, cis-2-dodecenoic acid] the “inhibitory activity of cis- and trans-isomer pairs compared” value [1] was “very similar or identical inhibitory activity”.
In the case of `CC(C)CCCCCCC/C=C/C(=O)O` [Compound 2, trans-11-methyl-2-dodecenoic acid], the “inhibitory activity of cis- and trans-isomer pairs compared” value [1] is reported as “identical inhibitory activity”.
For `C=C(C)C1CC=C(C=O)CC1` (stereo not shown) [perillaldehyde], the “formation of filamentous structures of C. albicans” value [4] is given as “interfere with the formation of filamentous structures”.
In the case of `C=C(C)C1CC=C(C)C(=O)C1` (stereo not shown) [Carvone], the “formation of filamentous structures of C. albicans” value [4] is listed as “interfere with the formation of filamentous structures”.
